Assay results: ChEMBL document CHEMBL1201862, “PubChem BioAssay data set” (2004)
Where “and” joins values, the source holds several entries; their conditions need not be identical. Equal entries are not always repeated.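 How tested: cells in 96-well plates exposed to compound for 48 hours at five concentrations. The concentration for 50% growth inhibition is given as GI50.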 Calls of active or inactive are those of the source. Cut-off read from the data, not from the text of the source: active = GI50 up to about 1.1 µM and inactive = higher.

How the values were obtained:
Experiment in all cases: DTP human tumour cell line panel, 48 h
BT-549 = system: BT-549
CAKI-1 = system: CAKI-1
EKVX = system: EKVX
HCT-116 = system: HCT-116
HCT-15 = system: HCT-15
HT-29 = system: HT-29
Hs-578T = system: Hs-578T
IGROV-1 = system: IGROV-1
MDA-N = system: MDA-N
NCI/ADR-RES = system: NCI/ADR-RES
OVCAR-3 = system: OVCAR-3
OVCAR-5 = system: OVCAR-5
RXF 393 = system: RXF 393
SK-MEL-2 = system: SK-MEL-2
SN12C = system: SN12C
SNB-75 = system: SNB-75
T47D = system: T47D
UACC-62 = system: UACC-62
NCI-H226 = system: NCI-H226
SF-539 = system: SF-539

Row | SMILES | GI50 (BT-549) | GI50 (CAKI-1) | GI50 (EKVX) | GI50 (HCT-116) | GI50 (HCT-15) | GI50 (HT-29) | GI50 (Hs-578T) | GI50 (IGROV-1) | GI50 (MDA-N) | GI50 (NCI/ADR-RES) | GI50 (OVCAR-3) | GI50 (OVCAR-5) | GI50 (RXF 393) | GI50 (SK-MEL-2) | GI50 (SN12C) | GI50 (SNB-75) | GI50 (T47D) | GI50 (UACC-62) | GI50 (NCI-H226) | GI50 (SF-539)
1 | OCCCN(CCc1ccc(Cl)c(Cl)c1)CCN1CCCC1 | 40.2 µM (inactive) | > 100 µM (inactive) | > 100 µM (inactive) | 47.9 µM (inactive) | 39.5 µM | 24.7 µM (inactive) | 38.8 µM (inactive) | > 100 µM (inactive) | 17.3 µM (inactive) | 81.5 µM (inactive) | > 100 µM (inactive) | 31.4 µM (inactive) | 64.4 µM (inactive) | 18.9 µM (inactive) | 73.3 µM (inactive) | 33 µM (inactive) | 33.1 µM (inactive) | 16.9 µM (inactive) | – | –
2 | O=C1c2ccccc2-c2nc(-c3ccccc3)cc3c2c1nc1ccccc13 | 17.7 µM (inactive) | 27.2 µM (inactive) | 23.5 µM (inactive) | 10.2 µM (inactive) | 11.2 µM | 13.2 µM (inactive) | 22.6 µM (inactive) | 4.12 µM (inactive) | 1.89 µM (inactive) | 14.5 µM (inactive) | 0.141 µM (active) | 29.4 µM (inactive) | 29.5 µM (inactive) | 20 µM (inactive) | 12.9 µM (inactive) | – | 21.5 µM (inactive) | 2.56 µM (inactive) | 16.6 µM (inactive) | –
3 | C=CCOCn1ccc(NC(=O)c2ccccc2)nc1=O | > 100 µM (inactive) | > 100 µM (inactive) | > 100 µM (inactive) | > 100 µM (inactive) | > 100 µM | > 100 µM (inactive) | > 100 µM (inactive) | > 100 µM (inactive) | > 100 µM (inactive) | – | – | – | – | – | > 100 µM (inactive) | > 100 µM (inactive) | > 100 µM (inactive) | > 100 µM (inactive) | > 100 µM (inactive) | > 100 µM (inactive)
4 | COC(=O)[C@]12CC3C=CC1N(C3)C(CBr)c1c2n(S(=O)(=O)c2ccccc2)c2ccccc12 (some centres undefined) | > 100 µM (inactive) | 74.6 µM (inactive) | 80 µM (inactive) | 47.9 µM (inactive) | 72.8 µM | 45.3 µM (inactive) | 39.9 µM (inactive) | 72.9 µM (inactive) | 60.1 µM (inactive) | > 100 µM (inactive) | 97.7 µM (inactive) | > 100 µM (inactive) | 33.2 µM (inactive) | 79.4 µM (inactive) | > 100 µM (inactive) | 25.9 µM (inactive) | – | 57.3 µM (inactive) | 41.7 µM (inactive) | –
5 | O=c1oc2c/c(=C\c3ccc([N+](=O)[O-])cc3)c(=O)c3cccc1c3-2 | 54.6 µM (inactive) | – | > 100 µM (inactive) | > 100 µM (inactive) | > 100 µM | > 100 µM (inactive) | > 100 µM (inactive) | > 100 µM (inactive) | > 100 µM (inactive) | > 100 µM (inactive) | 48.5 µM (inactive) | > 100 µM (inactive) | – | > 100 µM (inactive) | > 100 µM (inactive) | 22 µM (inactive) | > 100 µM (inactive) | > 100 µM (inactive) | – | –
6 | O=C1NN=C2C=C(c3ccc(Cl)cc3)CC(c3cccc(Cl)c3)C12 (centres undefined) | 58.2 µM (inactive) | 34.8 µM (inactive) | 22.1 µM (inactive) | 18.5 µM (inactive) | 13.9 µM | 21.9 µM (inactive) | 19.9 µM (inactive) | 19.6 µM (inactive) | 23.4 µM (inactive) | 39 µM (inactive) | 29.5 µM (inactive) | 26.5 µM (inactive) | 14.5 µM (inactive) | 19.7 µM (inactive) | 22.5 µM (inactive) | – | 60.7 µM (inactive) | 15.8 µM (inactive) | 20.4 µM (inactive) | 24.5 µM (inactive)
7 | COc1cc(NC(C)=O)ccc1C(=O)N/N=C/c1ccco1 | > 100 µM (inactive) | 65 µM (inactive) | > 100 µM (inactive) | > 100 µM (inactive) | > 100 µM | > 100 µM (inactive) | > 100 µM (inactive) | > 100 µM (inactive) | > 100 µM (inactive) | > 100 µM (inactive) | > 100 µM (inactive) | > 100 µM (inactive) | > 100 µM (inactive) | > 100 µM (inactive) | > 100 µM (inactive) | > 100 µM (inactive) | > 100 µM (inactive) | > 100 µM (inactive) | – | 44.2 µM (inactive)
8 | O=C1c2ccccc2C(=O)c2c(NCCCN3CCOCC3)ccc(NCCCN3CCOCC3)c21 | 6.62 µM (inactive) | 4.45 µM (inactive) | 11 µM (inactive) | 1.23 µM (inactive) | 2.55 µM | 1.14 µM (inactive) | 5.45 µM (inactive) | 4.69 µM (inactive) | 3.22 µM (inactive) | – | 4.07 µM (inactive) | 9.42 µM (inactive) | 8.36 µM (inactive) | 8.24 µM (inactive) | 2.18 µM (inactive) | 2.29 µM (inactive) | 29.3 µM (inactive) | 2.03 µM (inactive) | 6.59 µM (inactive) | 1.82 µM (inactive)
9 | CC(C)(C)C1CCC2c3c([nH]c4ccccc34)C3C(=O)N(c4ccc(C#N)cc4)C(=O)C3C2C1 (centres undefined) | 15.7 µM (inactive) | 12.3 µM (inactive) | 13.8 µM (inactive) | 5.43 µM (inactive) | 12.1 µM | 3.78 µM (inactive) | 11.2 µM (inactive) | 16.4 µM (inactive) | 11.9 µM (inactive) | 17.6 µM (inactive) | 16.4 µM (inactive) | 20.7 µM (inactive) | 3.21 µM (inactive) | 13.1 µM (inactive) | 9.59 µM (inactive) | – | – | 5.81 µM (inactive) | 20 µM (inactive) | 18.7 µM (inactive)
10 | COc1ccc(N2C=Nn3c(nc4sc(C)c(C)c4c3=O)C2)cc1 | > 100 µM (inactive) | > 100 µM (inactive) | > 100 µM (inactive) | > 100 µM (inactive) | > 100 µM | > 100 µM (inactive) | > 100 µM (inactive) | > 100 µM (inactive) | > 100 µM (inactive) | > 100 µM (inactive) | – | > 100 µM (inactive) | 53.3 µM (inactive) | > 100 µM (inactive) | > 100 µM (inactive) | > 100 µM (inactive) | > 100 µM (inactive) | > 100 µM (inactive) | > 100 µM (inactive) | –
11 | CCOC(=O)C1=COC(C)(c2ccccc2)CC1=O (centres undefined) | > 100 µM (inactive) | > 100 µM (inactive) | > 100 µM (inactive) | > 100 µM (inactive) | > 100 µM | > 100 µM (inactive) | 88.9 µM (inactive) | – | > 100 µM (inactive) | > 100 µM (inactive) | > 100 µM (inactive) | > 100 µM (inactive) | 63.1 µM (inactive) | > 100 µM (inactive) | > 100 µM (inactive) | > 100 µM (inactive) | > 100 µM (inactive) | > 100 µM (inactive) | – | > 100 µM (inactive)
12 | COc1cc2c(c3c1c(=O)c1ccccc1n3C)C=CC1(CCCC1)O2 | 10.1 µM (inactive) | 2.54 µM (inactive) | 13.5 µM (inactive) | 15.1 µM (inactive) | 14.1 µM | 7.05 µM (inactive) | 2.61 µM (inactive) | 12.9 µM (inactive) | 15.3 µM (inactive) | 23.7 µM (inactive) | 13.2 µM (inactive) | 12.9 µM (inactive) | 5.61 µM (inactive) | 14 µM (inactive) | 19.1 µM (inactive) | 11.8 µM (inactive) | – | 13.1 µM (inactive) | 16 µM (inactive) | 4.16 µM (inactive)
13 | CCCCCCCCCCCCCCN [TETRADECYLAMINE] | > 100 µM (inactive) | > 100 µM (inactive) | > 100 µM (inactive) | > 100 µM (inactive) | > 100 µM | > 100 µM (inactive) | > 100 µM (inactive) | > 100 µM (inactive) | > 100 µM (inactive) | > 100 µM (inactive) | > 100 µM (inactive) | > 100 µM (inactive) | > 100 µM (inactive) | > 100 µM (inactive) | > 100 µM (inactive) | > 100 µM (inactive) | > 100 µM (inactive) | > 100 µM (inactive) | – | –
14 | Cc1cn(C2CC(N(O)Cc3ccccc3)C(CO[Si](C)(C)C(C)(C)C)O2)c(=O)[nH]c1=O (centres undefined) | 16.4 µM (inactive) and 16.3 µM (inactive) | 17 µM (inactive) and 26.5 µM (inactive) | 25.4 µM (inactive) and 17.8 µM (inactive) | 16.2 µM (inactive) and 19.1 µM (inactive) | 37.2 µM | 17.3 µM (inactive) and 22.9 µM (inactive) | 18.4 µM (inactive) and 16.5 µM (inactive) | 15.7 µM (inactive) and 25.5 µM (inactive) | 18.9 µM (inactive) and 17.4 µM (inactive) | – | 17.7 µM (inactive) | 18.6 µM (inactive) and 19.7 µM (inactive) | 13.6 µM (inactive) | 20.3 µM (inactive) | 16 µM (inactive) and 16.1 µM (inactive) | – | – | 12.2 µM (inactive) and 16.4 µM (inactive) | 18.6 µM (inactive) and 18.8 µM (inactive) | 15.5 µM (inactive) and 18.1 µM (inactive)
15 | Nc1ccc2nc3n(c2c1)C(c1c(F)cccc1F)SC3 (centres undefined) | > 100 µM (inactive) | > 100 µM (inactive) | > 100 µM (inactive) | > 100 µM (inactive) | > 100 µM | > 100 µM (inactive) | > 100 µM (inactive) | > 100 µM (inactive) | > 100 µM (inactive) | > 100 µM (inactive) | > 100 µM (inactive) | > 100 µM (inactive) | > 100 µM (inactive) | > 100 µM (inactive) | > 100 µM (inactive) | 80.4 µM (inactive) | > 100 µM (inactive) | > 100 µM (inactive) | – | > 100 µM (inactive)
